Structures are written as SMILES.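 Method: 48-hour compound exposure of cells in 96-well plates, five concentrations, linear interpolation of endpoints. At the GI50, growth is halved.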 Calls of active or inactive are those of the source. No stated cut-off is given here; in the data, active = GI50 up to about 1.1 µM and inactive = higher. A value given as a limit tells only on which side of the number the result lay.

This note sets out measurements from ChEMBL document CHEMBL1201862, “PubChem BioAssay data set” (2004).

Holding throughout (assay): DTP human tumour cell line panel, 48 h
Experiment [1] has as its system LOX IMVI.
The subject of experiment [2] is TK-10.
The test system of experiment [3] is SK-OV-3.
In experiment [4] the test system is IGROV-1.
The test system of experiment [5] is OVCAR-3.
Experiment [6] concerns 786-0.
Experiment [7] deals with SNB-19.
Experiment [8] deals with MDA-MB-435.
In experiment [9] the test system is NCI/ADR-RES.
For experiment [10], the system named is COLO 205.
Experiment [11] deals with RXF 393.
Experiment [12] deals with HCT-15.
Experiment [13] deals with CCRF-CEM.
Experiment [14] relates to MOLT-4.
In experiment [15] the test system is SK-MEL-28.
Experiment [16] relates to CAKI-1.
Experiment [17] deals with UO-31.
Experiment [18] deals with SNB-75.
In experiment [19] the test system is OVCAR-8.
The test system of experiment [20] is PC-3.

In general, GI50 refers to the concentration at which growth is held to half of that of the control. On to `O=C1NC(=O)C(CC(C(=O)C(=O)Nc2ccccc2Cl)C(=O)c2ccc3ccccc3c2)C(=O)N1` (stereo not given), for which the GI50 in experiment [1], in experiment [2], in experiment [3], in [4], in experiment [5] and in experiment [6] was > 100 µM (inactive) in each case. Also, the GI50 in experiment [7] is > 100 µM (inactive); in experiment [8] it was > 100 µM (inactive); in experiment [9], > 100 µM (inactive); in [10] it was > 100 µM (inactive); in experiment [11] it was > 100 µM (inactive); in [12], above 100 µM. Moreover, the GI50 in experiment [13] is > 100 µM (inactive); in experiment [14] it was > 100 µM (inactive); in experiment [15], > 100 µM (inactive); in [16], > 100 µM (inactive); in experiment [17], 63.7 µM (inactive); in experiment [18], > 100 µM (inactive). The GI50 in experiment [19] and in experiment [20] was > 100 µM (inactive) each time.

For the compound `O=c1c2cc(I)ccc2nc(S)n1Cc1ccccc1`, the GI50 is 37.8 µM (inactive) in experiment [1]; 16.8 µM (inactive) in experiment [2]; 27.5 µM (inactive) in experiment [3]; 4.07 µM (inactive) in experiment [4]; 6.65 µM (inactive) in experiment [5]; 11.5 µM (inactive) in experiment [6]. Moreover, the GI50 is 18.9 µM (inactive) in experiment [7]; 83.6 µM (inactive) in experiment [8]; 18.5 µM (inactive) in experiment [9]; > 100 µM (inactive) in [10]; 16.6 µM (inactive) in experiment [11]; 32.1 µM in experiment [12]. Moreover, the GI50 in [13] was 5.69 µM (inactive); in experiment [14] it was > 100 µM (inactive); in experiment [15] it was 43.2 µM (inactive); in experiment [16], 1.92 µM (inactive); in experiment [17], 0.543 µM (active); in experiment [18], 20.6 µM (inactive). Besides, the GI50 in experiment [19] was 23.1 µM (inactive); in experiment [20], 13.7 µM (inactive).

Consider `O=c1c2c3c(sc2nc2n1NC=NN2)CCCC3`, for which the GI50 in experiment [1] is 2.49 µM (inactive); in experiment [2], 24 µM (inactive); in [3] it was 42.8 µM (inactive); in experiment [4] it was 26.6 µM (inactive); in experiment [5], 1.28 µM (inactive); in [6], 17.6 µM (inactive). The GI50 in experiment [7] is 42.7 µM (inactive); in experiment [8], 12.8 µM (inactive); in [9], 26.7 µM (inactive); in [10], 25.4 µM (inactive); in experiment [11] it was 25.2 µM (inactive); in experiment [12], 17.4 µM. Besides, the GI50 in experiment [13] was 0.731 µM (active); in [14], 0.323 µM (active); in experiment [15], 17.7 µM (inactive); in experiment [16] it was 18 µM (inactive); in [17] it was > 44.7 µM (inactive); in [18] it was 23.8 µM (inactive). The GI50 in experiment [19] was 24.7 µM (inactive); in [20], 24.2 µM (inactive).

Take `O=C1CC(Br)c2c(Br)sc(Br)c21` (stereo not given): the GI50 in experiment [1] was 14.3 µM (inactive); in [2] it was 18.5 µM (inactive); in [3], 28.8 µM (inactive); in experiment [4] it was 16.6 µM (inactive); in [5], 18.9 µM (inactive); in experiment [6] it was 16.3 µM (inactive). Moreover, the GI50 in [7] was 27.7 µM (inactive); in [8], 20 µM (inactive); in [9], 34.5 µM (inactive); in [10], 19.8 µM (inactive); in [11], 18.3 µM (inactive); in experiment [12] it was 16.9 µM. Besides, the GI50 in [13] was 2.51 µM (inactive); in experiment [14], 0.906 µM (active); in experiment [15], 32 µM (inactive); in experiment [16], 22 µM (inactive); in [17], 16.4 µM (inactive); in experiment [18], 23.1 µM (inactive). Further, the GI50 is 16.1 µM (inactive) in [19] and 19.1 µM (inactive) in [20].

As for `CC1C2CC(C(S(=O)(=O)N3CCOCC3)/C2=N\O)C1(C)C` (stereo not given), the GI50 in experiment [1], in experiment [2], in [3], in [4], in [5] and in [6] was > 100 µM (inactive) throughout. The GI50 in [7] was > 100 µM (inactive); in [8], > 100 µM (inactive); in experiment [9], > 100 µM (inactive); in experiment [10], > 100 µM (inactive); in experiment [11], > 100 µM (inactive); in experiment [12], above 100 µM. The GI50 in [13], in [14], in [15], in [16], in [17] and in experiment [18] was > 100 µM (inactive) throughout. In addition, the GI50 in experiment [19] and in experiment [20] was > 100 µM (inactive) each time.

For `C=C(COCO)C(C)=O`, the GI50 in [1] was 15.9 µM (inactive); in [2], 13.7 µM (inactive); in experiment [3] it was 48.9 µM (inactive); in [4] it was 20.1 µM (inactive); in experiment [5] it was 11.6 µM (inactive); in experiment [6] it was 12 µM (inactive). For the same compound, the GI50 is > 66.8 µM (inactive) in experiment [7]; 14.2 µM (inactive) in experiment [8]; 22.4 µM (inactive) in experiment [9]; 7.52 µM (inactive) in experiment [10]; 14.3 µM (inactive) in [11]; 21.4 µM in [12]. Moreover, the GI50 in experiment [13] is 2.86 µM (inactive); in [14], 2.66 µM (inactive); in experiment [15], 16.8 µM (inactive); in experiment [16], 2.5 µM (inactive); in [17], 12.2 µM (inactive); in experiment [18] it was 16.3 µM (inactive). The results for the GI50 in experiment [19] and in experiment [20] were 8.51 µM (inactive) and 19.1 µM (inactive), respectively.

As for `O=C(CCCN1CCC2(CC1)CC(c1ccccc1)OC2=O)c1ccc(F)cc1` (stereo not given), the GI50 in experiment [1] was 19.6 µM (inactive); in experiment [2] it was 59 µM (inactive); in experiment [3] it was > 100 µM (inactive); in experiment [4], > 100 µM (inactive); in experiment [5], 33.3 µM (inactive); in experiment [6], 24.1 µM (inactive). In addition, the GI50 is 39.2 µM (inactive) in experiment [7]; 41.3 µM (inactive) in experiment [8]; 92 µM (inactive) in [9]; 17.3 µM (inactive) in experiment [10]; 66.2 µM (inactive) in [11]; 37.2 µM in experiment [12]. Further, the GI50 in experiment [13] is 41.6 µM (inactive); in [14], 28.3 µM (inactive); in [15], 39.4 µM (inactive); in [16], 24.5 µM (inactive); in experiment [17] it was 19.4 µM (inactive); in experiment [18], 16.7 µM (inactive). Also, the GI50 in experiment [19] is > 100 µM (inactive); in [20], 40.2 µM (inactive).

Consider `C=CCNC(=O)CN(CC(=O)O)C1CCCCC1N(CC(=O)O)CC(=O)O` (stereo not given), for which the GI50 in [1], in [2], in experiment [3], in experiment [4], in [5] and in [6] was > 100 µM (inactive) throughout. For the same compound, the GI50 in [7] is > 100 µM (inactive); in [8], > 100 µM (inactive); in [9], > 100 µM (inactive); in experiment [10], > 100 µM (inactive); in experiment [11], > 100 µM (inactive); in experiment [12], above 100 µM. Moreover, the GI50 in [13], in experiment [14], in experiment [15], in experiment [16], in [17] and in experiment [18] was > 100 µM (inactive) throughout. Also, the GI50 in [19] and in [20] was > 100 µM (inactive) each time.

In the case of `N#CC(c1ccccc1)N(CCOCCOCCN(C(=O)c1ccccc1)C(C#N)c1ccccc1)C(=O)c1ccccc1` (stereo not given), the GI50 was 91.2 µM (inactive) in experiment [1]; 78.2 µM (inactive) in experiment [2]; > 100 µM (inactive) in experiment [3]; > 100 µM (inactive) in experiment [4]; 66.8 µM (inactive) in experiment [5]; > 100 µM (inactive) in experiment [6]. Also, the GI50 is > 100 µM (inactive) in experiment [7]; 83 µM (inactive) in experiment [8]; 28.2 µM (inactive) in experiment [9]; > 100 µM (inactive) in experiment [10]; > 100 µM (inactive) in experiment [11]; above 100 µM in experiment [12]. For the same compound, the GI50 was 58.5 µM (inactive) in [13]; 32.2 µM (inactive) in experiment [14]; 82.6 µM (inactive) in [15]; > 100 µM (inactive) in experiment [16]; 37.1 µM (inactive) in experiment [17]; > 100 µM (inactive) in experiment [18]. The GI50 is > 100 µM (inactive) in experiment [19] and 37.5 µM (inactive) in experiment [20].

Turning to `C/C1=C\CC/C(C)=C/C=C(/C(C)C)CC/C(C(=O)O)=C/CC1` [CROTOCEMBRANEIC ACID], the GI50 is 54.8 µM (inactive) in experiment [1]; 56.8 µM (inactive) in [2]; 35.5 µM (inactive) in experiment [3]; 61.1 µM (inactive) in experiment [4]; 22.9 µM (inactive) in experiment [5]; 55.7 µM (inactive) in experiment [6]. The GI50 in experiment [7] is 53.3 µM (inactive); in experiment [8], 44.4 µM (inactive); in experiment [9], 44.8 µM (inactive); in experiment [10] it was 19.9 µM (inactive); in [11], 29.4 µM (inactive); in experiment [12], 37.8 µM. The GI50 in experiment [13] was 30.5 µM (inactive); in [14] it was 28.3 µM (inactive); in experiment [15], > 100 µM (inactive); in experiment [16], 49.9 µM (inactive); in experiment [17], 72.8 µM (inactive); in experiment [18] it was 77.3 µM (inactive). Further, the GI50 is 66.2 µM (inactive) in experiment [19] and 40.2 µM (inactive) in experiment [20].
